ChEMBL document CHEMBL1275493, “Anti-human immunodeficiency virus type 1 activities of antimicrobial peptides derived from human and bovine cathelicidins” (Antimicrob Agents Chemother, 2008)
Peptide text beside a SMILES is read from it.

Experiments:
[1] = tested on: Human immunodeficiency virus 1; test: Antiviral activity against Human immunodeficiency virus 1 3B infected in CEM-SS cells; type: functional, organism-based
[2] = Therapeutic index, TC50 for Human immunodeficiency virus 1 3B infected human CEM-SS cells to EC50 for immunodeficiency virus 1 3B; type: cell-based; conditions: CEM-SS cells infected with HIV-1 3B, read-out: TI
CEM-SS = test: Cytotoxicity against Human immunodeficiency virus 1 3B infected human CEM-SS cells; type: functional; conditions: read-out: TC50 (the source's name)

Row | EC50 [1] | Structure (SMILES) | selectivity ratio [2] | CC50 (CEM-SS)
1 | 680 nM | CC[C@H](C)[C@H](NC(=O)[C@H](CCCCN)NC(=O)[C@H](CCCCN)NC(=O)[C@H](Cc1ccccc1)NC(=O)[C@H](CC(C)C)NC(=O)[C@H](CCCCN)NC(=O)[C@H](CCCCN)NC(=O)[C@H](NC(=O)[C@H](CCCCN)NC(=O)[C@H](CCCCN)NC(=O)[C@H](CCCNC(=N)N)NC(=O)[C@H](NC(=O)[C@H](CCCNC(=N)N)NC(=O)[C@H](CCCCN)NC(=O)[C@H](Cc1ccccc1)NC(=O)[C@H](CCCNC(=N)N)NC(=O)CN)c1ccccc1)c1ccccc1)C(=O)N[C@@H](CO)C(=O)O | 15 | 10.2 µM
2 | 3400 nM | CC[C@H](C)[C@H](NC(=O)[C@H](CCCNC(=N)N)NC(=O)[C@H](CCC(N)=O)NC(=O)[C@@H](NC(=O)[C@@H](NC(=O)[C@H](CCCNC(=N)N)NC(=O)[C@H](CCCCN)NC(=O)[C@@H](N)Cc1ccccc1)[C@@H](C)CC)C(C)C)C(=O)N[C@@H](CCCCN)C(=O)N[C@@H](CC(=O)O)C(=O)N[C@@H](Cc1ccccc1)C(=O)N[C@@H](CC(C)C)C(=O)N[C@@H](CCCNC(=N)N)C(=O)O (H-FKRIVQRIKDFLR-OH) | 3.1 | 10.4 µM
